The OligoGym collection
These antisense oligonucleotides have a phosphorothioate backbone; sugars and methylation of C are not fully specified.

Columns and labels:
Details in all cases: ASO
SMAD2 = molecular target: SMAD2
GNAI2 = molecular target: GNAI2
ITGB3 = molecular target: ITGB3
MAP2K6 = molecular target: MAP2K6
Also: test concentration or dose not given here.

| Sequence | remaining target (mRNA or protein) (fraction of control) (GNAI2) | remaining target (mRNA or protein) (fraction of control) (ITGB3) | other results |
| --- | --- | --- | --- |
| AAACAGCCTCTTGTATCG | – | – | remaining target (mRNA or protein) (fraction of control) (SMAD2): 0.29 |
| AAACTTCCCCACCTATGT | – | – | remaining target (mRNA or protein) (fraction of control) (SMAD2): 0.18 |
| AAAGAGAGGAAAGAGGAG | 0.99 | – | – |
| AAAGCCATCTACAGTGAG | – | – | remaining target (mRNA or protein) (fraction of control) (SMAD2): 0.34 |
| AAAGGCACAGGCAGCTCT | – | ≥ 1 | – |
| AACATTTGGACTTGGCTG | 0.76 | – | – |
| AAGCGGGTCACCTGGTCA | – | ≥ 1 | – |
| AAGGTAGACGTGGCCTCT | – | 0.71 | – |
| AAGTGCTTGGTATGGTAA | – | – | remaining target (mRNA or protein) (fraction of control) (SMAD2): 0.43 |
| AATGCTATGACAGAAGAG | – | – | remaining target (mRNA or protein) (fraction of control) (SMAD2): 0.76 |
| ACACACACATAAACACAC | – | ≥ 1 | – |
| ACACAGACAAGACAATGT | ≥ 1 | – | – |
| ACAGATTCCACAAGGTGC | – | – | remaining target (mRNA or protein) (fraction of control) (SMAD2): 0.22 |
| ACATACTGACATTCTCCC | – | ≥ 1 | – |
| ACATCTTGAAGTGTAGGT | 0.78 | – | – |
| ACCACATACAGGATGGAC | – | ≥ 1 | – |
| ACCAGCATCTCAGACAAG | ≥ 1 | – | – |
| ACGACACAGTCATCCTCA | – | ≥ 1 | – |
| ACTCACTGGGAACTCGAT | – | 0.66 | – |
| ACTGTAGAGGTCCATTCA | – | – | remaining target (mRNA or protein) (fraction of control) (SMAD2): 0.42 |
| AGAAGAAAACAAACAAACAA | – | – | remaining target (mRNA or protein) (fraction of control) (MAP2K6): 0.82 |
| AGAAGTCGTCACACTCGC | – | 0.72 | – |
| AGACAACTCTTCAGGGAG | – | 0.62 | – |

| Sequence | remaining target (mRNA or protein) (fraction of control) (GNAI2) | remaining target (mRNA or protein) (fraction of control) (ITGB3) | other results |
| --- | --- | --- | --- |
| AGACAAGGGCAGGCTTCA | 0.37 | – | – |
| AGAGATTGACTACATTTT | – | 0.93 | – |
| AGATGCTGGTACATCCCC | – | 0.4 | – |
| AGATTACAGCCTGGTGGA | – | – | remaining target (mRNA or protein) (fraction of control) (SMAD2): 0.57 |
| AGCCCATCCCGCCGTCCG | 0.91 | – | – |
| AGCTGCCTGGCGTCGTCC | 0.34 | – | – |
| AGCTGCTGAGAGTCAGGC | – | 0.22 | – |
| AGCTGCTTCTCCGCCGCC | – | – | remaining target (mRNA or protein) (fraction of control) (SMAD2): 0.27 |
| AGCTGGTATTCCCTTGAG | 0.55 | – | – |
| AGCTTCTCAGTCATCAGC | – | 0.28 | – |
| AGGAAGAGGATGATGGAC | ≥ 1 | – | – |
| AGGCATCTGGGCAGGTGG | – | 0.9 | – |
| AGGCTCCCTGTAAACATT | 0.77 | – | – |
| AGGTCGTTCAGGTAGTAG | 0.64 | – | – |
| AGTCCTCCTCTGAGCACT | – | 0.55 | – |
| AGTCCTTCAGGTTGTTCT | 0.54 | – | – |
| ATCTGTTCCTTTGGATTCAT | – | – | remaining target (mRNA or protein) (fraction of control) (MAP2K6): 0.73 |
| ATGACTGCTTATCATTAA | – | ≥ 1 | – |
| ATGGTGCTCTTCCCTGAC | 0.52 | – | – |
| CAACAGCAGCAACTTCAC | 0.89 | – | – |
| CAAGTGTCAGAAGAACCAAA | – | – | remaining target (mRNA or protein) (fraction of control) (MAP2K6): 0.7 |
| CAATAAGGCAAATCTGAA | – | 0.77 | – |
| CACATTGACCACAGAGGC | – | 0.74 | – |

| Sequence | remaining target (mRNA or protein) (fraction of control) (GNAI2) | remaining target (mRNA or protein) (fraction of control) (ITGB3) | other results |
| --- | --- | --- | --- |
| CACCCTTTCACAAAACTC | – | – | remaining target (mRNA or protein) (fraction of control) (SMAD2): 0.15 |
| CAGGTTCTGAGTAAGTAA | – | – | remaining target (mRNA or protein) (fraction of control) (SMAD2): 0.54 |
| CAGTTCATTCTATACTATAG | – | – | remaining target (mRNA or protein) (fraction of control) (MAP2K6): 0.7 |
| CATTAGAAGGCTTGACGTCT | – | – | remaining target (mRNA or protein) (fraction of control) (MAP2K6): 0.67 |
| CATTCCTCCAGCCAATCT | – | 0.6 | – |
| CATTTTCCCCTTTCCTTTGA | – | – | remaining target (mRNA or protein) (fraction of control) (MAP2K6): ≥ 1 |
| CCACGGGCTTTATGGTAA | – | 0.63 | – |
| CCCCTCCCTCATACACAG | 0.62 | – | – |
| CCCGCCCGACCCACCCGA | 0.62 | – | – |
| CCCTAAAAGATGTGGTGATC | – | – | remaining target (mRNA or protein) (fraction of control) (MAP2K6): ≥ 1 |
| CCCTCCAGACGCAGCCTT | 0.47 | – | – |
| CCTCAAACTTACTCTGGA | 0.85 | – | – |
| CCTTCTTGTCATTTCTAC | – | – | remaining target (mRNA or protein) (fraction of control) (SMAD2): 0.57 |
| CCTTTCGACTGAGACATTTT | – | – | remaining target (mRNA or protein) (fraction of control) (MAP2K6): ≥ 1 |
| CGAGAAAGAACTTTTGCTGT | – | – | remaining target (mRNA or protein) (fraction of control) (MAP2K6): ≥ 1 |
| CGCAGAAGATGATGGCTG | 0.67 | – | – |
| CGCCCTCAAAGCAGTGGA | 0.61 | – | – |
| CGCTGCTGAAGAAAGATGCG | – | – | remaining target (mRNA or protein) (fraction of control) (MAP2K6): 0.85 |
| CGGACAGGTCATCAGGGA | 0.59 | – | – |
| CGTGAATGGCAAGATGGA | – | – | remaining target (mRNA or protein) (fraction of control) (SMAD2): 0.47 |
| CTAATCGTCCTGTTTTCT | – | – | remaining target (mRNA or protein) (fraction of control) (SMAD2): 0.33 |
| CTACAAATCTACTTATAATT | – | – | remaining target (mRNA or protein) (fraction of control) (MAP2K6): 0.99 |
| CTCACACCACTTTTCTTC | – | – | remaining target (mRNA or protein) (fraction of control) (SMAD2): 0.1 |
